According to the supplement of paper PMC11061612:

Experiments:
[1] = system: SW982 (Other Solid Carcinomas); assay: combination Emax (second highest fraction inhibited in the dose matrix, 72 h); higher = more inhibition; extreme values may be limits of the assay
Outline: (§1)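 Cell lines grown in DMEM/F12 or RPMI with 10% FBS were plated in 1536-well plates and held 24 hours at 37°C, 5% CO2 before 72 hours of exposure to two-drug dose matrices, with DMSO typically at 0.2%. CellTiter-Glo 2.0 luminescence gave viability, which was converted to inhibition. Vehicle wells were set to 0 and blank wells to 1. Combination Emax is the second-highest inhibition in the matrix, and Bliss excess is the observed combination effect minus the expected EA + EB − EA·EB, where EA and EB are the single-agent effects.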

[2] = system: EFO-21 (Ovarian Carcinoma); assay: as above
Outline: as §1

[3] = system: NCI-H650 (Lung Adenocarcinoma); assay: as above
Outline: as §1

[4] = system: NCI-H1355 (Lung Adenocarcinoma); assay: as above
Outline: as §1

[5] = system: SW872 (Other Solid Carcinomas); assay: as above
Outline: as §1

[6] = system: G-401 (Other Solid Carcinomas); assay: as above
Outline: as §1

[7] = system: DU-145 (Prostate Carcinoma); assay: as above
Outline: as §1

[8] = system: COLO-668 (Small Cell Lung Carcinoma); assay: as above
Outline: as §1

[9] = system: SKN (Other Solid Carcinomas); assay: as above
Outline: as §1

[10] = system: MOG-G-UVW (Low Grade Glioma); assay: as above
Outline: as §1

[11] = system: SNU-387 (Hepatocellular Carcinoma); assay: as above
Outline: as §1

[12] = system: CADO-ES1 (Ewing's Sarcoma); assay: as above
Outline: as §1

[13] = system: LC-1-sq (Squamous Cell Lung Carcinoma); assay: as above
Outline: as §1

[14] = system: KMRC-1 (Kidney Carcinoma); assay: as above
Outline: as §1

[15] = system: NCI-H2122 (Lung Adenocarcinoma); assay: as above
Outline: as §1

[16] = system: NCI-H1838 (Lung Adenocarcinoma); assay: as above
Outline: as §1

[17] = system: HCC2998 (Colorectal Carcinoma); assay: as above
Outline: as §1

[18] = system: HCC1937 (Breast Carcinoma); assay: as above
Outline: as §1

[19] = system: SK-LU-1 (Lung Adenocarcinoma); assay: Bliss excess, mean over the matrix (fraction); higher = more synergy
Outline: as §1

[20] = system: SKN (Other Solid Carcinomas); assay: as above
Outline: as §1
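Wherever Bliss excess, mean over the matrix is given: after 72 h of two-drug dosing.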

SMILES	combination Emax [1]	combination Emax [2]	combination Emax [3]	combination Emax [4]	combination Emax [5]	combination Emax [6]	combination Emax [7]	combination Emax [8]	combination Emax [9]	combination Emax [10]	combination Emax [11]	combination Emax [12]	combination Emax [13]	combination Emax [14]	combination Emax [15]	combination Emax [16]	combination Emax [17]	combination Emax [18]	Bliss excess [19]	Bliss excess [20]
CN(C)CCCOc1ccc(-c2ccc3ncc4c(c3c2)n(C2CCOCC2)c(=O)n4C)cn1 [AZD0156] + C=CCn1c(=O)c2cnc(Nc3ccc(N4CCN(C)CC4)cc3)nc2n1-c1cccc(C(C)(C)O)n1 [AZD1775] (first compound max 1 µM, partner max 1 µM)	0.71	0.472	0.263	0.532	0.267	0.646	0.239	0.405	0.336	0.744	0.464	0.39	0.91	0.259	0.793	0.465	0.633	0.475	-0.0264	-0.0548
CC(=O)c1c(C)c2cnc(Nc3ccc(N4CCNCC4)cn3)nc2n(C2CCCC2)c1=O [Palbociclib] + Cc1c2c(nn1C)CSCc1cc(n(C)n1)CSc1cc(c3ccccc3c1)OCCCc1c(C(=O)O)n(C)c3c-2c(Cl)ccc13 [AZD5991] (first compound max 10 µM, 7x7, partner max 1 µM)	0.528	0.256	0.244	0.345	0.228	0.854	0.107	0.304	0.385	0.526	0.429	0.46	0.241	0.322	0.773	0.363	0.905	0.242	-0.0693	-0.0465
C[C@@H]1COCCN1c1cc(C2([S@](C)(=N)=O)CC2)nc(-c2ccnc3[nH]ccc23)n1 [AZD6738] + O=C(c1cc(Cc2n[nH]c(=O)c3ccccc23)ccc1F)N1CCN(C(=O)C2CC2)CC1 [Olaparib] (first compound max 10 µM, 7x7, partner max 10 µM)	0.781	0.412	0.193	0.712	0.63	0.491	0.548	0.659	0.417	0.847	0.575	0.915	0.839	0.566	0.902	0.542	0.811	0.517	-0.03	0.0031
NC1(C(=O)N[C@@H](CCO)c2ccc(Cl)cc2)CCN(c2ncnc3[nH]ccc23)CC1 [Capivasertib] + COc1nnc2ccc(N3CCC(c4ccc(OCCN5CCN(C)C(=O)[C@H]5C)cc4)CC3)nn12 [AZD5153] (first compound max 10 µM, 7x7, partner max 1 µM)	0.848	0.321	0.579	0.503	0.553	0.79	0.251	0.786	0.725	0.835	0.552	0.356	0.815	0.557	0.817	0.264	0.872	0.44	0.0081	0.0238
NC1(C(=O)N[C@@H](CCO)c2ccc(Cl)cc2)CCN(c2ncnc3[nH]ccc23)CC1 [Capivasertib] + Cn1cnc2c(F)c(Nc3ccc(Br)cc3Cl)c(C(=O)NOCCO)cc21 [Selumetinib] (first compound max 10 µM, 7x7, partner max 10 µM)	0.574	0.335	0.352	0.443	0.449	0.746	0.219	0.669	0.594	0.714	0.409	0.279	0.34	0.504	0.983	0.367	0.774	0.527	-0.0486	-0.0264
Cn1cnc2c(F)c(Nc3ccc(Br)cc3Cl)c(C(=O)NOCCO)cc21 [Selumetinib] + CCN(CCO)CCCOc1ccc2c(Nc3cc(CC(=O)Nc4cccc(F)c4)[nH]n3)ncnc2c1 [AZD2811] (first compound max 10 µM, 7x7, partner max 1 µM)	0.594	0.212	0.387	0.275	0.285	0.561	0.203	0.407	0.255	0.642	0.319	0.276	0.303	0.233	0.962	0.322	0.792	0.314	-0.098	-0.068
